# Like-named read-outs stand apart in the source and are kept apart here.
# Key:
# [1] = tested on: oilseed rape; test: Test C pre-/postemergence herbicide test; type: in vivo, Brassica napus
# How it was run: (§1)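 Plants grown and held in a greenhouse for 13 to 15 days post-spray, then rated 0–100 by visual comparison with controls. Pre treatments targeted seeds in loam and sand; post treatments targeted 1- to 4-leaf plants in peat-based potting medium.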
# [2] = tested on: foxtail, giant; test: Test C pre-/postemergence herbicide test; type: in vivo, Setaria faberii
# How it was run: as §1
# [3] = tested on: wheat (winter wheat); test: Test C pre-/postemergence herbicide test; type: in vivo, Triticum aestivum
# How it was run: as §1
# [4] = tested on: soybean; test: Test C pre-/postemergence herbicide test; type: in vivo, Glycine max
# How it was run: as §1
# [5] = tested on: galium; test: Test C pre-/postemergence herbicide test; type: in vivo, Galium aparine
# How it was run: as §1
# [6] = tested on: barnyardgrass; test: Test C pre-/postemergence herbicide test; type: in vivo, Echinochloa crus-galli
# How it was run: as §1
# [7] = tested on: oat, wild; test: Test C pre-/postemergence herbicide test; type: in vivo, Avena fatua; conditions: Postemergence
# How it was run: as §1
# [8] = tested on: velvetleaf; test: Test C pre-/postemergence herbicide test; type: in vivo, Abutilon theophrasti
# How it was run: as §1
# [9] = tested on: barnyardgrass; test: Test A pre-/postemergence herbicide test; type: in vivo, Echinochloa crus-galli; conditions: for pest or weed control at 125 g/ha: 125 g ai/ha
# How it was run: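 Approximately 10 days after treatment in the greenhouse, plants were compared with untreated controls and given a 0–100 visual injury rating. Applications: preemergence directed soil spray; postemergence on 2–10 cm plants at the one- to two-leaf stage.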
# [10] = tested on: crabgrass, large; test: Test C pre-/postemergence herbicide test; type: in vivo, Digitaria sanguinalis
# How it was run: as §1
# [11] = tested on: pigweed; test: Test C pre-/postemergence herbicide test; type: in vivo, Amaranthus retroflexus
# How it was run: as §1
# [12] = tested on: blackgrass; test: Test C pre-/postemergence herbicide test; type: in vivo, Alopecurus myosuroides
# How it was run: as §1
# [13] = Postemergence, 31 g ai/ha, scale 0 to 100 (0 no effect, 100 complete control)
# [14] = Postemergence, 62 g ai/ha, scale 0 (no effect) to 100 (complete control)
# [15] = Postemergence, 125 g ai/ha, scale 0 to 100 (0 no effect, 100 complete control)
# [16] = Postemergence, 250 g ai/ha, scale 0 to 100 (0 no effect, 100 complete control)
# [17] = Preemergence, 31 g ai/ha, scale 0 to 100, 0 is no effect and 100 is complete control
# [18] = Preemergence, 62 g ai/ha, scale 0 to 100 (0 no effect, 100 complete control)
# [19] = Preemergence, 125 g ai/ha, scale 0 to 100 (0 no effect, 100 complete control)
# [20] = Preemergence, 62 g ai/ha, scale 0 to 100
smiles,measurement,setting,value
"O=C1NC[C@H](c2cccc(C(F)(F)F)c2)[C@H]1C(=O)Nc1ccccc1F [Compound 204, (3R,4S)—N-(2-fluorophenyl)-2-oxo-4-[3-(trifluoromethyl)phenyl]-3-pyrrolidinecarboxamide]","Plant response rating, Oilseed Rape",[1]; [13],0
same,"Plant response rating, Oilseed Rape",[1]; [14],0
same,"Plant response rating, Oilseed Rape",[1]; [15],0
same,"Plant response rating, Oilseed Rape",[1]; [16],45
same,Oilseed Rape plant response rating,[1]; [17],0
same,Oilseed Rape plant response rating,[1]; [18],0
same,"Plant response rating, Oilseed Rape",[1]; [19],0
same,"Plant response rating (scale of 0 to 100), Oilseed Rape","[1]; Preemergence, 250 g ai/ha",60
same,"Plant response rating, Foxtail, Giant",[2]; [13],0
same,"Plant response rating, Foxtail, Giant",[2]; [14],10
same,"Plant response rating, Foxtail, Giant",[2]; [15],90
same,"Plant response rating, Foxtail, Giant",[2]; [16],90
same,"Foxtail, Giant plant response rating",[2]; [17],90
same,"Foxtail, Giant plant response rating",[2]; [18],90
same,"Plant response rating, Foxtail, Giant",[2]; [19],95
same,"Plant response rating (scale of 0 to 100), Foxtail, Giant","[2]; Preemergence, 250 g ai/ha",95
same,"Plant response rating, Wheat",[3]; [13],0
same,"Plant response rating, Wheat",[3]; [14],0
same,"Plant response rating, Wheat",[3]; [15],0
same,"Plant response rating, Wheat",[3]; [16],0
same,Wheat plant response rating,[3]; [17],0
same,Wheat plant response rating,[3]; [18],70
same,"Plant response rating, Wheat",[3]; [19],80
same,"Plant response rating (scale of 0 to 100), Wheat","[3]; Preemergence, 250 g ai/ha",90
same,"Plant response rating, Soybean",[4]; [13],0
same,"Plant response rating, Soybean",[4]; [14],0
same,"Plant response rating, Soybean",[4]; [15],0
same,"Plant response rating, Soybean",[4]; [16],5
same,Soybean plant response rating,[4]; [17],5
same,"Plant response rating, Soybean",[4]; [19],5
same,"Plant response rating (scale of 0 to 100), Soybean","[4]; Preemergence, 250 g ai/ha",10
same,"Plant response rating, Galium",[5]; [13],10
same,"Plant response rating, Galium",[5]; [14],45
same,"Plant response rating, Galium",[5]; [15],60
same,"Plant response rating, Galium",[5]; [16],60
same,Galium plant response rating,[5]; [18],90
same,"Plant response rating, Galium",[5]; [19],90
same,"Plant response rating (scale of 0 to 100), Galium","[5]; Preemergence, 250 g ai/ha",90
same,"Plant response rating, Barnyardgrass",[6]; [13],5
same,"Plant response rating, Barnyardgrass",[6]; [14],55
same,"Plant response rating, Barnyardgrass",[6]; [15],80
same,"Plant response rating, Barnyardgrass",[6]; [16],90
same,Barnyardgrass plant response rating,[6]; [17],80
same,"Plant response rating, Barnyardgrass",[6]; [20],90
same,"Plant response rating, Barnyardgrass",[6]; [19],95
same,"Plant response rating (scale of 0 to 100; 0 is no effect, 100 is complete control), Barnyardgrass","[6]; Preemergence, 250 g ai/ha",95
same,"Plant response rating, Oat, Wild","[7]; 31 g ai/ha, scale 0 to 100 (0 no effect, 100 complete control)",0
same,"Plant response rating, Oat, Wild","[7]; 62 g ai/ha, scale 0 (no effect) to 100 (complete control)",0
same,"Plant response rating, Oat, Wild","[7]; 125 g ai/ha, scale 0 to 100 (0 no effect, 100 complete control)",0
same,"Plant response rating, Oat, Wild","[7]; 250 g ai/ha, scale 0 to 100 (0 no effect, 100 complete control)",5
same,"Plant response rating, Velvetleaf",[8]; [13],0
same,"Plant response rating, Velvetleaf",[8]; [14],0
same,"Plant response rating, Velvetleaf",[8]; [15],0
same,"Plant response rating, Velvetleaf",[8]; [16],10
same,Velvetleaf plant response rating,[8]; [17],0
same,Velvetleaf plant response rating,[8]; [18],0
same,"Plant response rating, Velvetleaf",[8]; [19],0
same,"Plant response rating (scale of 0 to 100), Velvetleaf","[8]; Preemergence, 250 g ai/ha",30
same,pest or weed control at 125 g/ha,"[9]; Echinochloa crus-galli, post-emergence, 240 h, Postemergence, 0 to 100 scale, 0 is no effect, 100 is complete control, read-out: Plant response rating, Barnyardgrass",90%
same,pest or weed control at 125 g/ha,"[9]; Echinochloa crus-galli, pre-emergence, 240 h, visual rating, 0 to 100 scale, 0 no effect, 100 complete control, approximately 10 days, read-out: Plant response rating, Barnyardgrass",90%
same,pest or weed control at 500 g/ha,"[9]; Echinochloa crus-galli, pre-emergence, 240 h, preemergence, 500 g ai/ha, 0 to 100 scale, 0 is no effect and 100 is complete control, read-out: Plant response rating, Barnyardgrass",90%
same,"Barnyardgrass plant response rating (0 to 100 scale, 0 is no effect, 100 is complete control)","[9]; Postemergence, 500 g ai/ha",90
same,"Plant response rating, Crabgrass, Large",[10]; [13],0
same,"Plant response rating, Crabgrass, Large",[10]; [14],50
same,"Plant response rating, Crabgrass, Large",[10]; [15],70
same,"Plant response rating, Crabgrass, Large",[10]; [16],80
same,"Crabgrass, Large plant response rating",[10]; [17],90
same,"Crabgrass, Large plant response rating",[10]; [18],90
same,"Plant response rating, Crabgrass, Large",[10]; [19],100
same,"Plant response rating (scale of 0 to 100), Crabgrass, Large","[10]; Preemergence, 250 g ai/ha",95
same,"Plant response rating, Pigweed",[11]; [13],20
same,"Plant response rating, Pigweed",[11]; [14],10
same,"Plant response rating, Pigweed",[11]; [15],10
same,"Plant response rating, Pigweed",[11]; [16],10
same,Pigweed plant response rating,[11]; [17],0
same,Pigweed plant response rating,[11]; [18],0
same,"Plant response rating, Pigweed",[11]; [19],0
same,"Plant response rating (scale of 0 to 100), Pigweed","[11]; Preemergence, 250 g ai/ha",75
same,"Plant response rating, Blackgrass",[12]; [13],0
same,"Plant response rating, Blackgrass",[12]; [14],0
same,"Plant response rating, Blackgrass",[12]; [15],0
same,"Plant response rating, Blackgrass",[12]; [16],50
same,Blackgrass plant response rating,[12]; [17],90
same,"Plant response rating, Blackgrass",[12]; [20],90
same,"Plant response rating, Blackgrass",[12]; [19],90
same,"Plant response rating (scale of 0 to 100), Blackgrass","[12]; Preemergence, 250 g ai/ha",90
